Patent publication US20120045393A1 (priority 2009, published 2012)
Non-standard residues stand in square brackets, D forms with d. Residues, ends and D or L forms follow the SMILES beside them. *: point of attachment. DOTA = O=C(O)CN1CCN(CC(=O)O)CCN(CC(=O)*)CCN(CC(=O)O)CC1; Bpa = N[C@@H](Cc1ccc(C(=O)c2ccccc2)cc1)C(=O)O; d2Nal = N[C@H](Cc1ccc2ccccc2c1)C(=O)O; d3Pal = N[C@H](Cc1cccnc1)C(=O)O; azaGly = NNC(=O)O; Sar = CNCC(=O)O

tested on: LHRH binding sites on human ovarian cancer cells (EFO-27); conditions: not given
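Further: Cell-associated radioactivity on confluent EFO-27 monolayers in 96-well plates, measured by microplate scintillation counting.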

| EC50 | Compound |
| --- | --- |
| 2.14 µM | CN(CC(=O)N[C@@H](Cc1c[nH]cn1)C(=O)N[C@@H](Cc1c[nH]c2ccccc12)C(=O)N[C@@H](CO)C(=O)N[C@@H](Cc1c[nH]cn1)C(=O)N[C@H](CCCNC(=N)N)C(=O)N[C@@H](Cc1c[nH]c2ccccc12)C(=O)N[C@@H](Cc1ccc(-c2ccccc2)cc1)C(=O)N1CCC[C@H]1C(=O)NNC(N)=O)C(=O)CN1CCN(CC(=O)O)CCN(CC(=O)O)CCN(CC(=O)O)CC1 [BRU-2625] |
| 2.26 µM | CN(CC(=O)N[C@@H](Cc1c[nH]cn1)C(=O)N[C@@H](Cc1c[nH]c2ccccc12)C(=O)N[C@@H](CO)C(=O)N[C@@H](Cc1c[nH]cn1)C(=O)N[C@H](CCCNC(=N)N)C(=O)N[C@@H](Cc1c[nH]c2ccccc12)C(=O)N[C@@H](Cc1ccc(Cl)cc1)C(=O)N1CCC[C@H]1C(=O)NNC(N)=O)C(=O)CN1CCN(CC(=O)O)CCN(CC(=O)O)CCN(CC(=O)O)CC1 [BRU-2725] |
| 0.76 µM | CN(C(=O)CN1CCN(CC(=O)O)CCN(CC(=O)O)CCN(CC(=O)O)CC1)[C@H](Cc1ccc2ccccc2c1)C(=O)N[C@@H](Cc1c[nH]cn1)C(=O)N[C@@H](Cc1c[nH]c2ccccc12)C(=O)N[C@@H](CO)C(=O)N[C@@H](Cc1c[nH]cn1)C(=O)N[C@H](CCCNC(=N)N)C(=O)N[C@@H](Cc1c[nH]c2ccccc12)C(=O)N[C@@H](Cc1ccc(C(=O)c2ccccc2)cc1)C(=O)N1CCC[C@H]1C(=O)NNC(N)=O [BRU-3003] |
| 1.21 µM | CC(C)C[C@H](NC(=O)[C@H](CO)NC(=O)[C@H](Cc1c[nH]c2ccccc12)NC(=O)[C@H](CCCNC(=N)N)NC(=O)[C@@H](Cc1ccc2ccccc2c1)NC(=O)CN1CCN(CC(=O)O)CCN(CC(=O)O)CCN(CC(=O)O)CC1)C(=O)N[C@H](CCCNC(=N)N)C(=O)N[C@@H](Cc1c[nH]c2ccccc12)C(=O)N[C@@H](Cc1ccc(C(=O)c2ccccc2)cc1)C(=O)N1CCC[C@H]1C(=O)NNC(N)=O [BRU-3029] ({DOTA}-[d2Nal]RWSL[dR]W[Bpa]P[azaGly]-NH2; C-terminus assumed) |

The remaining lines, values behind:

| Compound | EC50 |
| --- | --- |
| N=C(N)NCCC[C@H](NC(=O)[C@@H](Cc1ccc2ccccc2c1)NC(=O)CN1CCN(CC(=O)O)CCN(CC(=O)O)CCN(CC(=O)O)CC1)C(=O)N[C@@H](Cc1c[nH]c2ccccc12)C(=O)N[C@@H](CO)C(=O)N[C@@H](Cc1c[nH]cn1)C(=O)N[C@H](CCCNC(=N)N)C(=O)N[C@@H](Cc1c[nH]c2ccccc12)C(=O)N[C@@H](Cc1ccc(C(=O)c2ccccc2)cc1)C(=O)N1CCC[C@H]1C(=O)NNC(=O)NCCOCCN [compound 3022] | 0.71 µM |
| N=C(N)NCCC[C@H](NC(=O)[C@@H](Cc1ccc2ccccc2c1)NC(=O)CN1CCN(CC(=O)O)CCN(CC(=O)O)CCN(CC(=O)O)CC1)C(=O)N[C@@H](Cc1c[nH]c2ccccc12)C(=O)N[C@@H](CO)C(=O)N[C@@H](Cc1c[nH]cn1)C(=O)N[C@H](CCCNC(=N)N)C(=O)N[C@@H](Cc1c[nH]c2ccccc12)C(=O)O [BRU-3046, DO3A10CM-Dna12-Arg-Trp-Ser-His-Darg-Trp-OH] (HELM PEPTIDE1{[O=C(O)CN1CCN(CC(=O)O)CCN(CC(=O)[*:2])CCN(CC(=O)O)CC1].[O=C([C@@H](Cc1ccc2ccccc2c1)N[*:1])[*:2]].R.W.S.H.[dR].W}$$$$V2.0) | 15.8 µM |
| CN(CC(=O)N[C@@H](Cc1c[nH]cn1)C(=O)N[C@@H](Cc1c[nH]c2ccccc12)C(=O)N[C@@H](CO)C(=O)N[C@@H](Cc1c[nH]cn1)C(=O)N[C@H](Cc1cccnc1)C(=O)N[C@@H](Cc1c[nH]c2ccccc12)C(=O)N[C@@H](Cc1ccc(C(=O)c2ccccc2)cc1)C(=O)N1CCC[C@H]1C(=O)NNC(N)=O)C(=O)CN1CCN(CC(=O)O)CCN(CC(=O)O)CCN(CC(=O)O)CC1 [compound 2673] ({DOTA}-[Sar]HWSH[d3Pal]W[Bpa]P[azaGly]-NH2) | 12.3 µM |
| N=C(N)NCCC[C@H](NC(=O)[C@@H](Cc1ccc2ccccc2c1)NC(=O)CN1CCN(CC(=O)O)CCN(CC(=O)O)CCN(CC(=O)O)CC1)C(=O)N[C@@H](Cc1c[nH]c2ccccc12)C(=O)N[C@@H](CO)C(=O)N[C@@H](Cc1cscn1)C(=O)N[C@H](CCCNC(=N)N)C(=O)N[C@@H](Cc1c[nH]c2ccccc12)C(=O)N[C@@H](Cc1ccc(C(=O)c2ccccc2)cc1)C(=O)N1CCC[C@H]1C(=O)NNC(N)=O [compound 2958] | 0.71 µM |
| CNCC(=O)N[C@@H](CCCNC(=N)N)C(=O)N[C@@H](Cc1c[nH]c2ccccc12)C(=O)N[C@@H](CO)C(=O)N[C@@H](Cc1c[nH]cn1)C(=O)N[C@H](CCCNC(=N)N)C(=O)N[C@@H](Cc1c[nH]c2ccccc12)C(=O)N[C@@H](Cc1ccc(C(=O)c2ccccc2)cc1)C(=O)N1CCC[C@H]1C(=O)NCC1CCCCN1C(=O)CN1CCN(CC(=O)O)CCN(CC(=O)O)CCN(CC(=O)O)CC1 (stereo partly shown) [compound 3102] | 0.2 ± 0.07 µM |
| CN(CC(=O)N[C@@H](Cc1c[nH]cn1)C(=O)N[C@@H](Cc1c[nH]c2ccccc12)C(=O)N[C@@H](CO)C(=O)N[C@@H](Cc1c[nH]cn1)C(=O)N[C@H](CCCNC(=N)N)C(=O)N[C@@H](Cc1c[nH]c2ccccc12)C(=O)N[C@@H](Cc1c[nH]c2ccccc12)C(=O)N1CCC[C@H]1C(=O)NNC(N)=O)C(=O)CN1CCN(CC(=O)O)CCN(CC(=O)O)CCN(CC(=O)O)CC1 [BRU-2724] (HELM PEPTIDE1{[O=C(O)CN1CCN(CC(=O)O)CCN(CC(=O)[*:2])CCN(CC(=O)O)CC1].[Sar].H.W.S.H.[dR].W.W.P.[O=C(NN[*:1])[*:2]].[am]}$$$$V2.0) | 2.67 µM |
| N=C(N)NCCC[C@H](NC(=O)[C@@H](Cc1ccc2ccccc2c1)NC(=O)CN1CCN(CC(=O)O)CCN(CC(=O)O)CCN(CC(=O)O)CC1)C(=O)N[C@@H](Cc1cccnc1)C(=O)N[C@@H](CO)C(=O)N[C@@H](Cc1c[nH]cn1)C(=O)N[C@H](CCCNC(=N)N)C(=O)N[C@@H](Cc1c[nH]c2ccccc12)C(=O)N[C@@H](Cc1ccc(C(=O)c2ccccc2)cc1)C(=O)N1CCC[C@H]1C(=O)NNC(N)=O [compound 3109] | 0.73 µM |
| CNCC(=O)N[C@@H](CCCNC(=N)N)C(=O)N[C@@H](Cc1c[nH]c2ccccc12)C(=O)N[C@@H](CO)C(=O)N[C@@H](Cc1c[nH]cn1)C(=O)N[C@H](CCCNC(=N)N)C(=O)N[C@@H](Cc1c[nH]c2ccccc12)C(=O)N[C@@H](Cc1ccc(C(=O)c2ccccc2)cc1)C(=O)N1CCC[C@H]1C(=O)NCCCN(C)CCCNC(=O)CN1CCN(CC(=O)O)CCN(CC(=O)O)CCN(CC(=O)O)CC1 [compound 3045] | 0.21 ± 0.08 µM |

same assay, conditions: EFO-27 cells, competition with [125I-Tyr8]BRU-2477, 90 min

| Compound | EC50 |
| --- | --- |
| N=C(N)NCCC[C@H](NC(=O)[C@H](Cc1ccc2ccccc2c1)NC(=O)CN1CCN(CC(=O)O)CCN(CC(=O)O)CCN(CC(=O)O)CC1)C(=O)N[C@@H](Cc1c[nH]c2ccccc12)C(=O)N[C@@H](CO)C(=O)N[C@@H](Cc1c[nH]cn1)C(=O)N[C@H](CCCNC(=N)N)C(=O)N[C@@H](Cc1c[nH]c2ccccc12)C(=O)N[C@@H](Cc1ccc(C(=O)c2ccccc2)cc1)C(=O)N1CCC[C@H]1C(=O)NNC(N)=O [BRU-3051] | 0.62 µM |
| CCN=C(NCC)NCCCC[C@@H](NC(=O)[C@H](Cc1c[nH]cn1)NC(=O)[C@H](CO)NC(=O)[C@H](Cc1c[nH]c2ccccc12)NC(=O)[C@H](Cc1c[nH]cn1)NC(=O)CN(C)C(=O)CN1CCN(CC(=O)O)CCN(CC(=O)O)CCN(CC(=O)O)CC1)C(=O)N[C@@H](Cc1c[nH]c2ccccc12)C(=O)N[C@@H](Cc1ccc(C(=O)c2ccccc2)cc1)C(=O)N1CCC[C@H]1C(=O)NNC(N)=O [BRU-2880] | 8.02 µM |
| N=C(N)NCCC[C@H](NC(=O)[C@@H](Cc1ccc2ccccc2c1)NC(=O)CN1CCN(CC(=O)O)CCN(CC(=O)O)CCN(CC(=O)O)CC1)C(=O)N[C@@H](Cc1c[nH]c2ccccc12)C(=O)N[C@@H](CO)C(=O)N[C@@H](Cc1c[nH]cn1)C(=O)N[C@H](CCCNC(=N)N)C(=O)N[C@@H](Cc1c[nH]c2ccccc12)C(=O)N[C@@H](Cc1ccc(C(=O)c2ccccc2)cc1)C(=O)N1CCC[C@H]1C(=O)NCC(=O)N[C@@H](Cc1ccccc1)C(N)=O [compound 2980] ({DOTA}-[d2Nal]RWSH[dR]W[Bpa]PGF-NH2) | 0.97 µM |

same assay, conditions: Table 5: modifications of amino acids at positions 1 and 2; in vitro binding on EFO-27 cells

| Compound | EC50 |
| --- | --- |
| CCN(CC(=O)N[C@@H](Cc1c[nH]cn1)C(=O)N[C@@H](Cc1c[nH]c2ccccc12)C(=O)N[C@@H](CO)C(=O)N[C@@H](Cc1c[nH]cn1)C(=O)N[C@H](CCCNC(=N)N)C(=O)N[C@@H](Cc1c[nH]c2ccccc12)C(=O)N[C@@H](Cc1ccc(C(=O)c2ccccc2)cc1)C(=O)N1CCC[C@H]1C(=O)NNC(N)=O)C(=O)CN1CCN(CC(=O)O)CCN(CC(=O)O)CCN(CC(=O)O)CC1 [BRU-2788] | 0.21 µM |
| N=C(N)NCCC[C@@H](NC(=O)[C@H](Cc1c[nH]cn1)NC(=O)[C@H](CO)NC(=O)[C@H](Cc1c[nH]c2ccccc12)NC(=O)[C@H](Cc1c[nH]cn1)NC(=O)[C@H](NC(=O)CNC(=O)CN1CCN(CC(=O)O)CCN(CC(=O)O)CCN(CC(=O)O)CC1)c1cccc2ccccc12)C(=O)N[C@@H](Cc1c[nH]c2ccccc12)C(=O)N[C@@H](Cc1ccc(C(=O)c2ccccc2)cc1)C(=O)N1CCC[C@H]1C(=O)NNC(N)=O [BRU-2770] | 2.7 µM |
| CN(CC(=O)N[C@@H](Cc1ccc(O)cc1)C(=O)N[C@@H](Cc1c[nH]c2ccccc12)C(=O)N[C@@H](CO)C(=O)N[C@@H](Cc1c[nH]cn1)C(=O)N[C@H](CCCNC(=N)N)C(=O)N[C@@H](Cc1c[nH]c2ccccc12)C(=O)N[C@@H](Cc1ccc(C(=O)c2ccccc2)cc1)C(=O)N1CCC[C@H]1C(=O)NNC(N)=O)C(=O)CN1CCN(CC(=O)O)CCN(CC(=O)O)CCN(CC(=O)O)CC1 [BRU-2814] ({DOTA}-[Sar]YWSH[dR]W[Bpa]P[azaGly]-NH2) | 2.24 µM |
| N=C(N)NCCC[C@@H](NC(=O)[C@H](Cc1c[nH]cn1)NC(=O)[C@H](CO)NC(=O)[C@H](Cc1c[nH]c2ccccc12)NC(=O)[C@H](Cc1c[nH]cn1)NC(=O)CNC(=O)CN1CCN(CC(=O)O)CCN(CC(=O)O)CCN(CC(=O)O)CC1)C(=O)N[C@@H](Cc1c[nH]c2ccccc12)C(=O)N[C@@H](Cc1ccc(C(=O)c2ccccc2)cc1)C(=O)N1CCC[C@H]1C(=O)NNC(N)=O [BRU-2733] | 1.18 µM |

same assay, conditions: Table 13: linker between AA1 and DO3A10CM; EFO-27 cells

| Compound | EC50 |
| --- | --- |
| CN(CC(=O)N[C@@H](Cc1c[nH]cn1)C(=O)N[C@@H](Cc1c[nH]c2ccccc12)C(=O)N[C@@H](CO)C(=O)N[C@@H](Cc1c[nH]cn1)C(=O)N[C@H](CCCNC(=N)N)C(=O)N[C@@H](Cc1c[nH]c2ccccc12)C(=O)N[C@@H](Cc1ccc(C(=O)c2ccccc2)cc1)C(=O)N1CCC[C@H]1C(=O)NNC(N)=O)C(=O)CNC(=O)CN1CCN(CC(=O)O)CCN(CC(=O)O)CCN(CC(=O)O)CC1 [compound 2717] | 1.53 µM |

same assay, conditions: Table 19: analogs used in the stabilization studies

| EC50 | Compound |
| --- | --- |
| 0.6 µM | BRU-2994: DO3A10CM-Dnal2-R-W-S-H-r-W-Bpa4-Flp4-azaG |

same assay, conditions: read-out: EC50 μM; Underivatized LHRH peptides and LHRH peptides with chelator on N-terminus; EFO-27 cells

| EC50 | Compound |
| --- | --- |
| 0.6 µM | BRU-2994: DO3A10CM-Dnal2-R-W-S-H-r-W-Bpa4-Flp4-azaG |
